Laboratory results published in US11130780B2, “Inhibitors of growth factor activation enzymes” (Washington University, priority 2015, dated 2021).
Where two headings read alike, the source gives them in different places. Residues, ends and D or L forms follow the SMILES beside them. *: point of attachment. AMC = Cc1cc(=O)oc2cc(N*)ccc12; Boc = CC(C)(C)OC(=O)*

Columns and labels:
matriptase [1] = biological target: T1, matriptase (Homo sapiens, UniProt Q9Y5Y6); assay: Km determination of fluorogenic substrate with matriptase; type: biochemical
T1 construct: Charles Craik, UCSF (obtained from another laboratory)
T1 sequence (Q9Y5Y6 615-855 limits assumed): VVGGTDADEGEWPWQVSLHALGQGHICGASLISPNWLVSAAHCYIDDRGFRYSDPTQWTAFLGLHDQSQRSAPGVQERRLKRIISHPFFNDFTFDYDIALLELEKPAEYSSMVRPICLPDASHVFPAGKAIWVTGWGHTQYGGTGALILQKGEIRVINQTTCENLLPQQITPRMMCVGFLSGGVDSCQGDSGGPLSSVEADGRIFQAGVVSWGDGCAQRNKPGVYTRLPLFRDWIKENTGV
Description: (§1) In black 384 well plates (Corning #3575), 12.5 nM HGFA was mixed with various amounts of Boc-QLR-AMC and 1 nM matriptase and 0.3 nM hepsin were mixed with various amounts of Boc-QAR-AMC. Changes in fluorescence (excitation at 380 nm and emission at 460 nn) were measured at room temperature over time in a Biotek Synergy 2 plate reader (Winnoski, Vt.). Using plots of the mean reaction velocity versus substrate concentration and the Michaelis-Menten enzyme kinetics equation within GraphPad Prism version 6.04 for Windows (GraphPad Software, San Diego, Calif., www.graphpad.com), the reaction Vmax and subsequent Km for each of the substrates were determined.

HGFA [2] = biological target: T2, HGFA (Homo sapiens, UniProt Q04756); assay: Km determination of fluorogenic substrate with HGFA; type: biochemical
T2 construct: His6 tag (N); seven amino acid spacer and seven amino acid TEV cleavage site (N); Honey Bee melittin signal peptide (N); made in house; host or cells: High 5 insect cells (baculovirus; virus raised in Sf9)
T2 sequence (Q04756 373-655): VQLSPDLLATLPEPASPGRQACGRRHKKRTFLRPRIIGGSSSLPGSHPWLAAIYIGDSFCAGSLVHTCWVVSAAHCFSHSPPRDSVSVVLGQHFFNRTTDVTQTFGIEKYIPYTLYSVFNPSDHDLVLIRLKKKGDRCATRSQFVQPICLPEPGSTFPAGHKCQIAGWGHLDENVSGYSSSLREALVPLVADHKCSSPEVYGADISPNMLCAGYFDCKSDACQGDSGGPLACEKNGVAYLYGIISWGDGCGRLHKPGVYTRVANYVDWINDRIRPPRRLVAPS
Description: as §1

thrombin = thrombin (Homo sapiens, UniProt P00734); assay: Chromogenic kinetic enzyme assay of thrombin; type: biochemical
Description: (§2) Inhibitors (11-pt serial dilutions, 0-20 μM final concentration) were serially diluted in DMSO (2% DMSO final concentration) and then mixed with recombinant thrombin (0.15 nM final concentration) or Factor Xa (0.35 nM final concentration) in TNC buffer (25 mM Tris, 150 mM NaCl, 5 mM CaCl2, 0.01% TRITON X-100, pH 8) using clear 384 well plates. […] Changes in absorbance at 405 nm were measured over time in a Biotek Synergy 2 plate (Winnoski, Vt.). Using GraphPad Prism version 6.04 software program, (GraphPad Software, San Diego, Calif., www.graphpad.com), a four parameter curve fit was used to determine the inhibitor IC50s from a plot of the mean reaction velocity versus the inhibitor concentration. Ki values were calculated from the IC50 values using the Cheng and Prusoff equation (Ki=IC50/(1+[S]/Km).

hepsin = biological target: T3, hepsin (Homo sapiens, UniProt P05981); assay: Fluorescent kinetic enzyme inhibitor assay of hepsin; type: biochemical; conditions: Table 9.1; Fluorogenic Assay; read-out: Hepsin Ki
T3 construct: purchased R&D Systems 4776-SE-010
In short: (§3)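 Fluorescence (ex 380/em 460 nm) followed kinetically at room temperature; IC50 from four-parameter fit of mean velocity versus concentration, averaged over three experiments.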

matriptase [3] = biological target: T1, matriptase; assay: Fluorescent kinetic enzyme inhibitor assay of matriptase; type: biochemical; conditions: Fluorogenic Assay
In short: as §3

HGFA [4] = biological target: T2, HGFA; assay: Fluorescent kinetic enzyme inhibitor assay of HGFA; type: biochemical; conditions: for Ki: Fluorogenic Assay, read-out: HGFA Ki
In short: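 Recombinant His-tagged HGFA residues 373-655 from insect cells, with substrate at Km. Inhibitors in 11-point dilutions, 0-20 μM final, 2% DMSO, fluorescence (ex 380/em 460 nm) followed over time at room temperature. IC50 from four-parameter fit of mean velocity, average of three experiments.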

Factor Xa = Factor Xa (Homo sapiens, UniProt P00742); assay: Chromogenic kinetic enzyme assay of Factor Xa; type: biochemical
Description: as §2

Trypsin = Trypsin selectivity assay; type: biochemical
MDA-MB-231 cells = assay: MRC5-mediated migration and invasion of MDA-MB-231 cells through Matrigel; type: cell-based, human; conditions: 1 μM, 24 hour
Description: MRC5 fibroblasts were plated in the bottom well of a Boyden chamber, and incubated overnight to condition the attractant media. The following day, MDA-MB-231 or T47D cells+/−inhibitors were plated above on Matrigel coated inserts (8.0 μm membrane inserts, 12-well; Corning 3422) and incubated in FBS media overnight. Inhibitors were added to fresh media and then cells were plated above on the inserts. The cells were fixed and stained at the 24 hour time point. The inserts were then removed and mounted on glass plates where the number of migrated cells were imaged and counted at 4 fields per membrane using a light microscope at 20×.

HGFA [5] = biological target: T4, HGFA (Homo sapiens, UniProt Q04756); assay: Kinetic parameters of ACC substrates (Table 11.4); type: biochemical
T4 sequence (Q04756 408-655 limits assumed): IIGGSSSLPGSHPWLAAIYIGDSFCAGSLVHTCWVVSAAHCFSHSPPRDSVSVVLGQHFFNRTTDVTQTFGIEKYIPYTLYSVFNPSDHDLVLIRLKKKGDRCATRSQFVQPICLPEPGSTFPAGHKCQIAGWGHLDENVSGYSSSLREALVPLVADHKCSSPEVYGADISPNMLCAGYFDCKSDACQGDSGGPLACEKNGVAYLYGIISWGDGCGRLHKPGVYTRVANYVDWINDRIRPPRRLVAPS
T4 sequence (Q04756 373-407 partner limits assumed): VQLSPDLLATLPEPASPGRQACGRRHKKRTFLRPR
Excerpt: Results for MSP-MS profiling for HGFA substrate cleavage and specificity can be seen in FIG. 20 and Tables 11.1-11.4. IceLogo graphs can be seen in FIGS. 21A and 21B.

[6] = Table 6.2, headed Fluorogenic Assay
[7] = Table 6.2, headed Fluorogenic Assay, read-out: Thrombin Ki
[8] = Table 6.2, headed Fluorogenic Assay, read-out: Factor Xa Ki

Chain of Factor Xa (P00742 235-488 limits assumed): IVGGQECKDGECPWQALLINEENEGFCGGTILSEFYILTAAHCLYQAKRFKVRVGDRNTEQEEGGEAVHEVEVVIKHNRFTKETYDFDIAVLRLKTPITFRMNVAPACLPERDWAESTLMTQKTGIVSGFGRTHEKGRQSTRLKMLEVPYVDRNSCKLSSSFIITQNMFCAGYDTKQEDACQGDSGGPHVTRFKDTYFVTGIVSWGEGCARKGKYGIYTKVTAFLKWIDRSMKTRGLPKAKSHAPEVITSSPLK
Chain of Factor Xa (P00742 41-179 partner limits assumed): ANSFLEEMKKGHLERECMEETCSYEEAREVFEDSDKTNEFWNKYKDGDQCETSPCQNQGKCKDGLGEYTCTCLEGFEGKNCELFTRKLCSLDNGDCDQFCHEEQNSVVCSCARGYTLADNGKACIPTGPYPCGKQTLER
T3 sequence (P05981 163-417 limits assumed): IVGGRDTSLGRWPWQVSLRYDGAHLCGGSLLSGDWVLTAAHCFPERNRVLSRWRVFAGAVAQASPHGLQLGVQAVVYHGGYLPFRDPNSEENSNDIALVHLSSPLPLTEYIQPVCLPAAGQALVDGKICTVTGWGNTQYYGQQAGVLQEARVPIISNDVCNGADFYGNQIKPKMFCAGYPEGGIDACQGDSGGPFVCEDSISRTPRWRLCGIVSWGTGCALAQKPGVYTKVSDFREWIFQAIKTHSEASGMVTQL
T3 sequence (P05981 45-162 partner limits assumed): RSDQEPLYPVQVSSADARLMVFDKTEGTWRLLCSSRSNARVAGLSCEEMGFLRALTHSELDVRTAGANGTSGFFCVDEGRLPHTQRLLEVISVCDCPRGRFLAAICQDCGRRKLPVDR

`Cc1cc(=O)oc2cc(NC(=O)[C@H](CCCNC(=N)N)NC(=O)[C@H](C)NC(=O)[C@H](CCC(N)=O)NC(=O)OC(C)(C)C)ccc12` [Boc-QAR-AMC] (Boc-Gln-Ala-Arg-{AMC}) was tested, and the Km (matriptase [1]) was 93 µM.
Molecule `Cc1cc(=O)oc2cc(NC(=O)[C@H](CCCNC(=N)N)NC(=O)[C@H](CC(C)C)NC(=O)[C@H](CCC(N)=O)NC(=O)OC(C)(C)C)ccc12` [Boc-QLR-AMC] (Boc-Gln-Leu-Arg-{AMC}) has a Km (HGFA [2]) of 37 µM.
In the case of `N=C(N)c1cccc(C[C@H](NS(=O)(=O)c2ccc3ccccc3c2)C(=O)N2CCN(C(=O)NCc3ccc(Br)cc3)CC2)c1` [Compound 25a, (S)—N-(4-Bromobenzyl)-4-(3-(3-carbamimidoylphenyl)-2-(naphthalene-2-sulfonamido)propanoyl)piperazine-1-carboxamide], the Ki (thrombin; Table 9.4, read-out: Thrombin Ki) is reported as 3110 nM, the Ki (hepsin) is reported as 48 nM and the Ki (matriptase [3]; Table 9.1) is reported as 4200 nM. It also gave a Ki (HGFA [4]; Table 9.1) of 16200 nM, a Ki (Factor Xa; Table 9.4, read-out: Factor Xa Ki) of 4560 nM and a Ki (Trypsin; Table 9.4) of 2.2 nM.
With `CC(=O)N[C@@H](CCCCN)C(=O)N[C@@H](CCC(N)=O)C(=O)N[C@@H](CC(C)C)C(=O)N[C@@H](CCCNC(=N)N)C(=O)c1nc2ccccc2s1` [Compound 7006, Ac-KQLR(SEQ ID NO: 1)-Kbt] the Ki (thrombin) was over 20000 nM, the Ki (HGFA [4]; Table 6.1) was 30 nM and the “fold increase in HGFA potency” value (HGFA [4]; versus parent compound) was 2 fold. The Ki (Factor Xa) was 129 nM and the Ki (Trypsin; [6]) was 0.24 nM.
In the case of `CC(=O)N[C@@H](CO)C(=O)N[C@@H](CCCCN)C(=O)N[C@@H](CC(C)C)C(=O)N[C@@H](CCCNC(=N)N)C(=O)c1nc2ccccc2s1` [Compound 7053, Ac-SKLR(SEQ ID NO: 10)-Kbt], the Ki (thrombin) is reported as over 20000 nM, the Ki (HGFA [4]; Table 6.1) is reported as 33 nM and the Ki (Factor Xa) is reported as 1900 nM. It also gave a Ki (Trypsin; [6]) of 0.16 nM.
Molecule `CC(=O)N[C@@H](CCCCN)C(=O)N[C@@H](CCCNC(=N)N)C(=O)N[C@@H](CC(C)C)C(=O)N[C@@H](CCCNC(=N)N)C(=O)c1nc2ccccc2s1` [Compound 7054, Ac-KRLR(SEQ ID NO: 8)-Kbt] has a Ki (thrombin; [7]) of over 20000 nM, a Ki (HGFA [4]; Table 6.1) of 6 nM and a Ki (Factor Xa; [8]) of 91.9 nM. The Ki (Trypsin; [6]) was 0.82 nM and the “MRC5-mediated migration and invasion” value (MDA-MB-231 cells) was “abrogate”.
Molecule `CC(=O)N[C@@H](Cc1ccccc1)C(=O)N[C@@H](CC(C)C)C(=O)N[C@@H](Cc1ccccc1)C(=O)N[C@@H](CCCNC(=N)N)C(=O)c1nc2ccccc2s1` [Compound 7063, Ac-FLFR(SEQ ID NO: 19)-Kbt] has a Ki (thrombin; [7]) of over 20000 nM, a Ki (matriptase [3]; Table 6.1) of 3.6 nM and a Ki (HGFA [4]; Table 6.1) of 114 nM. For the same molecule, the Ki (Factor Xa; [8]) was 13.1 nM and the Ki (Trypsin; [6]) was 0.27 nM.
`CC(C)C[C@H](NC(=O)[C@H](CCCNC(=N)N)NC(=O)[C@@H](N)Cc1c[nH]c2ccccc12)C(=O)N[C@@H](CCCNC(=N)N)C(=O)c1nc2ccccc2s1` [Compound 7117, H-WRLR(SEQ ID NO: 9)-Kbt] gave a Ki (thrombin; [7]) of 4890 nM, a Ki (HGFA [4]; Table 6.1) of 8.75 nM and a Ki (Factor Xa; [8]) of 2.4 nM. For the same molecule, the Ki (Trypsin; [6]) was 0.96 nM.
In the case of `COC(=O)c1ccc(CNC(=O)c2ccc3nc(C(=O)[C@H](CCCNC(=N)N)NC(=O)[C@H](CC(C)C)NC(=O)[C@H](CCCNC(=N)N)NC(=O)[C@H](CCCCN)NC(C)=O)sc3c2)cc1` [Compound 7158, Ac-KRLR(SEQ ID NO: 8)-kbt-Benzyl-4-COOMe], the Ki (thrombin; [7]) is reported as 20.9 nM, the Ki (HGFA [4]; Table 6.1) is reported as 5.85 nM and the Ki (Factor Xa; [8]) is reported as 9 nM. It also gave a Ki (Trypsin; [6]) of 0.05 nM.
In the case of `COC(=O)c1cccc(CNC(=O)c2ccc3nc(C(=O)[C@H](CCCNC(=N)N)NC(=O)[C@H](CC(C)C)NC(=O)[C@H](CCCNC(=N)N)NC(=O)[C@H](CCCCN)NC(C)=O)sc3c2)c1` [Compound 7159, Ac-KRLR(SEQ ID NO: 8)-kbt-Benzyl-3-COOMe], the Ki (thrombin; [7]) is reported as 85.4 nM, the Ki (HGFA [4]; Table 6.1) is reported as 7.76 nM and the Ki (Factor Xa; [8]) is reported as 14 nM. For the same molecule, the Ki (Trypsin; [6]) was 0.04 nM.
`N=C(N)NCCC[C@H](NC(=O)[C@H](Cc1ccccc1)NC(=O)OCC1c2ccccc2-c2ccccc21)C(=O)c1nc2ccccc2s1` [Compound 7187-14, Fmoc-FR-kbt] showed a Ki (thrombin; [7]) of over 2000 nM, a Ki (HGFA [4]; Table 6.1) of 964 nM and a Ki (Factor Xa; [8]) of 28.4 nM. The Ki (Trypsin; [6]) was 14.3 nM.
For Ac-His(3Bom)-Agp-hLeu-Arg-ACC, the Km (HGFA [5]) was 52.1 µM.
